From patent US20230414499A1, “SUBLINGUAL FILM DOSAGE OF RASAGILINE OR PHARMACEUTICALLY ACCEPTABLE SALT THEREOF, AND PREPARATION METHOD THEREFOR AND USE THEREOF” (priority 2020, published 2023)
Structures can show the parent of a compound that is named as a salt. Where two headings read alike, the source gives them in different places.

Key:
[1] = after oral administration; cited from earlier work
[2] = Pharmacokinetic test of Beagle dogs; assay type: in vivo; conditions: both sexes, dog, plasma, po, intragastric administration of solution, 2 mg, n=4, read-out: Absolute bioavailability
Description: Sublingual film and intragastric administration: A two-period double crossover test was adopted, and the washout period was 1 week.
The dogs were fasted for 16 hours before administration and had free access to water. After 4 hours of administration, the dogs had free access to water, and food was administered. 2 mL of blood was collected from the forelimb or hindlimb vein before administration (0 h) and 0.033 h, 0.083 h, 0.167 h, 0.25 h, 0.333 h, 0.5 h, 0.75 h, 1 h, 1.5 h, 2 h, 3 h, 4 h, 6 h after administration, and placed in heparin sodium anticoagulation tubes. The collected blood samples were centrifuged immediately (1006×g, 10 min), separated to obtain the plasma and stored at −20° C.

- bioavailability [2]: 11.8%
SMILES: C#CCN[C@@H]1CCc2ccccc21 [Rasagiline mesylate]
- bioavailability [1]: about 36%
